Measurements published in PubChem BioAssay AID1996.
In brackets after ≈: the same amount, converted by molar mass.

Conditions: buffer; pH 7.4; 200.0 µM

Structure (SMILES) | solubility kinetic
O=C(CN1C(=O)NC2(CCCCCC2)C1=O)NCc1ccc(F)cc1 | > 52.1 µg/mL
COC(=O)c1cnc[nH]1 | > 18.9 µg/mL
CC1=Nc2cccc([N+](=O)[O-])c2NC(=O)C1 | > 32.9 µg/mL
Cc1ccc(/C=C/C(=O)NCCc2cccc(Cl)c2)o1 | 5.1 µg/mL (≈ 17.6 µM)
Nc1ccc(S(=O)(=O)NC2=NCCCCC2)cc1N | > 42.4 µg/mL
CCCCNC(=O)O/N=C(\N)CS(=O)(=O)C(C)(C)C | 36.5 µg/mL (≈ 124 µM)
O=C(O)CC(C(=O)Nc1ccc(Cl)cc1)N1CCCCCC1 (stereo not given) | > 48.7 µg/mL
CC(/C=C1\SC(=S)N(CC(=O)O)C1=O)=C\c1ccccc1 | > 47.9 µg/mL
Cc1[nH]c(C)c(C(=O)/C=C/c2ccc([N+](=O)[O-])cc2)c1C | 2.9 µg/mL (≈ 10.2 µM)
COC(=O)c1c(NC(=O)C2CC(C)=C(C)CC2C(=O)O)sc2c1CCCCC2 (stereo not given) | 58.1 µg/mL (≈ 143 µM)
Cc1nn(CC(=O)NC(C)c2ccccc2)c(C)c1[N+](=O)[O-] (stereo not given) | > 45.3 µg/mL
OC(CN1CC=C(c2ccccc2)CC1)c1ccccc1 (stereo not given) | 40.8 µg/mL (≈ 146 µM)
CCOC(=O)C1(CCc2ccccc2)CCN(CC(O)CO)CC1 (stereo not given) | 39.8 µg/mL (≈ 119 µM)
Cc1[nH]n(-c2ccccc2)c(=O)c1C=NCC1CCCO1 (stereo not given) | > 42.8 µg/mL
S=C(NC1CCCCC1)N1CCn2cccc2C1c1cccnc1 (stereo not given) | > 51.1 µg/mL
S=C(Nc1ccc(Br)cc1)Nc1ccc2c(c1)OCCO2 | 1.5 µg/mL (≈ 4.11 µM)
Cc1cccc(-c2nc(C)cc(=O)[nH]2)c1 | > 30 µg/mL

Structure (SMILES) | solubility kinetic
O=C(Nc1ccncc1)c1ccc(Cl)c([N+](=O)[O-])c1 | > 41.7 µg/mL
CCN1CSC(=S)N(Cc2ccccc2)C1 | 37.5 µg/mL (≈ 149 µM)
CN(CC(=O)Nc1ccc(C(N)=O)cc1)S(=O)(=O)c1ccc2c(c1)OCCO2 | 9.4 µg/mL (≈ 23.2 µM)
O=C(O)CN1C(=O)C(=O)N(Cc2cccc(F)c2)C1=O | > 42 µg/mL
CCOC(=O)C1=C(O)/C(=C\c2ccc(O)c(OCC)c2)N=C1C | 36.1 µg/mL (≈ 114 µM)
COc1cccc2c3c(c(=O)[nH]c12)CC(C)(C)O3 | > 36.8 µg/mL
O=C(OCC(=O)N1CCN(c2ccccc2)CC1)c1ccc([N+](=O)[O-])s1 | 7.1 µg/mL (≈ 18.9 µM)
N#Cc1cnc(Oc2ccc(Cl)cc2)nc1N | 4.3 µg/mL (≈ 17.4 µM)
O=C1NC(=O)c2cc(Oc3ccc([N+](=O)[O-])cc3)ccc21 | 2.5 µg/mL (≈ 8.8 µM)
CCn1c2ccccc2c2nc3cc(S(=O)(=O)N4CCOCC4)ccc3nc21 | 2.4 µg/mL (≈ 6.05 µM)
CN(C)/C=N/c1ncc(C(=O)c2ccc(Cl)cc2Cl)s1 | 41.6 µg/mL (≈ 127 µM)
O=C(COC(=O)c1c(F)cccc1F)NCc1cccs1 | > 46.7 µg/mL
CCOC(=O)Cn1nc(C)n(-c2ccc(F)cc2)c1=O | > 41.9 µg/mL
O=C(O)c1ccccc1-c1ccccc1C(=O)Nc1nc2ccccc2s1 | > 56.2 µg/mL
Cc1onc(-c2ccccc2)c1NC(=O)N(CCC#N)Cc1ccccc1 | 45.4 µg/mL (≈ 126 µM)
O=C(CCCN1C(=O)c2ccccc2C1=O)NCCCn1ccnc1 | 49.5 µg/mL (≈ 145 µM)
C=CCn1c(O)c(N=O)c2cc(C)ccc21 | > 32.4 µg/mL

Continued, values first:

solubility kinetic | Structure (SMILES)
23.3 µg/mL (≈ 85.3 µM) | Cc1ccc(NC(=O)COC(=O)c2ccco2)cc1C
2.9 µg/mL (≈ 8.73 µM) | O=C(COC(=O)CC1CC2CCC1C2)Nc1ccccc1[N+](=O)[O-] (stereo not given)
3.4 µg/mL (≈ 9.81 µM) | CCNc1nc(SC(C)C(=O)Nc2ccccc2)nc(N(C)C)n1 (stereo not given)
4.9 µg/mL (≈ 17.9 µM) | S=C1Cc2ccccc2C(c2ccc(Cl)cc2)N1 (stereo not given)
4.2 µg/mL (≈ 12.9 µM) | COc1cc(N)c(Cl)cc1C(=O)OCC(=O)c1cccs1
14.6 µg/mL (≈ 45.9 µM) | C#Cc1ccc(C(=O)NCc2ccc(N3CCCC3=O)cc2)cc1
29.6 µg/mL (≈ 108 µM) | CN=C(Nc1ccc(C(=O)OC)s1)c1ccccc1
11.1 µg/mL (≈ 23.2 µM) | CCOc1ccccc1OCCCC(=O)Nc1cc(S(=O)(=O)N2CCOCC2)ccc1OC
41.7 µg/mL (≈ 129 µM) | COc1ccc(C(=O)Cn2cnc3ccccc3c2=O)c(OC)c1
4.4 µg/mL (≈ 15.5 µM) | Cn1c(N)c(C(=O)Nc2ccccc2F)sc1=S
> 39.2 µg/mL | COc1ccc(NC(=O)Nc2ccc(F)cc2)cn1
0.4 µg/mL (≈ 1.06 µM) | CCOc1ccc(-c2csc3ncn(-c4ccc(OC)cc4)c(=O)c23)cc1
0.5 µg/mL (≈ 1.63 µM) | CSc1ccccc1NC(=O)Nc1cccc(Cl)c1C
5.4 µg/mL (≈ 16.7 µM) | COc1ccccc1NC(=O)c1coc(=O)c(Br)c1
1.6 µg/mL (≈ 5.12 µM) | O=C(NCc1ccc(Cl)cc1)c1cc(=O)[nH]c2ccccc12
1 µg/mL (≈ 3.06 µM) | COc1ccc(NC(=O)NC2CCCc3ccccc32)c(OC)c1 (stereo not given)
6 µg/mL (≈ 21.3 µM) | COc1cccc(NC(=O)c2ccc3c(c2)CCCC3)c1
10.2 µg/mL (≈ 29.1 µM) | CCn1cc(CCCC(=O)NCc2ccccc2OC)c2ccccc21
33.2 µg/mL (≈ 123 µM) | COc1cccc2c(C)cc(N3CCCCCC3)nc12
42.9 µg/mL (≈ 138 µM) | Cc1ccc(NC(=O)CN2CCCC2c2cccn2C)cc1C (stereo not given)
4.5 µg/mL (≈ 14 µM) | O=C(COC(=O)CCc1c[nH]c2ccccc12)Nc1ccccc1
32.1 µg/mL (≈ 135 µM) | CN(C(=O)CCl)C1CCCc2ccccc21 (stereo not given)
17.6 µg/mL (≈ 57.6 µM) | COc1ccc(S(=O)(=O)N2CCOc3ccccc32)cc1
21.4 µg/mL (≈ 61.6 µM) | COc1ccccc1NS(=O)(=O)c1cc(N)ccc1N1CCCC1
45.3 µg/mL (≈ 131 µM) | Cc1onc(-c2ccccc2Cl)c1C(=O)NCc1ccc(F)cc1
> 46.6 µg/mL | COc1ccc2oc(C(=O)NC(C)c3ccccn3)c(C)c2c1 (stereo not given)
